This passage reports TGI and GI50 results from PubChem BioAssay (NCI).

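Following 48 hours of exposure in 96-well plates, responses at five concentrations were used to interpolate endpoints linearly. GI50 marks 50% less growth. TGI denotes the concentration required for complete inhibition of growth.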 Bounds are passed on as bounds.

Test systems include A549 NSCLC; CAKI-1 renal; COLO 205 colon; HT29 colon; K-562 leukemia; NCI-H23 lung; OVCAR-3 ovarian; RPMI-8226 leukemia; SF-268 CNS; SNB-75 CNS.
Common to all, as to assay: NCI anticancer screen, dose series, 48 h

For the compound `CCC1OC(=O)CC(O)C(C)C(OC2OC(C)CC(N(C)C)C2O)C(CC=O)CC(C)C(=O)/C=C/C2(C)OC2C1C` (stereo not drawn), the TGI with A549 NSCLC was > 100 µM; with CAKI-1 renal, 74.1 µM; with COLO 205 colon it was 32.2 µM; in the assay with HT29 colon, 38.3 µM; in the assay with K-562 leukemia, 24.3 µM; with NCI-H23 lung, 52.3 µM. In addition, the TGI with OVCAR-3 ovarian is 59.1 µM; in the assay with RPMI-8226 leukemia, > 100 µM; in the assay with SF-268 CNS, 76.3 µM; in the assay on SNB-75 CNS it was 40.8 µM.

As to `O=c1sc(-c2nc3ccccc3[nH]2)c(/N=C/c2ccccc2)n1-c1ccccc1`, the TGI in the assay with A549 NSCLC, in the assay on CAKI-1 renal, in the assay on COLO 205 colon, with HT29 colon, in the assay with K-562 leukemia and with NCI-H23 lung was > 100 µM throughout. The TGI in the assay on OVCAR-3 ovarian is 65.6 µM; with RPMI-8226 leukemia, > 100 µM; with SF-268 CNS, > 100 µM; in the assay on SNB-75 CNS, 57.8 µM.

As to `COc1cc([C@@H]2c3cc4c(cc3[C@@H](NC(=O)c3ccc(OC(C)=O)cc3)C3COC(=O)[C@@H]32)OCO4)cc(OC)c1O` (stereo partly drawn), the TGI in the assay on A549 NSCLC amounted to 10.6 µM; in the assay on CAKI-1 renal it was 15.8 µM; in the assay with COLO 205 colon, 35.7 µM; in the assay with HT29 colon, 29.5 µM; in the assay with K-562 leukemia, 47.2 µM; in the assay on NCI-H23 lung it was 3.31 µM. In addition, the TGI with OVCAR-3 ovarian is 22.3 µM; in the assay on RPMI-8226 leukemia, 13.2 µM; in the assay with SF-268 CNS, > 100 µM; with SNB-75 CNS, 5.86 µM.

Consider `CCN(CC)CCNC(=O)C(Cl)=C1C(Cl)=C(Cl)C(Cl)=C1Cl`, for which the GI50 in the assay on A549 NSCLC is 4.22 µM; in the assay on CAKI-1 renal it was 2730 nM; in the assay with COLO 205 colon, 4210 nM; with HT29 colon it was 3490 nM; in the assay on K-562 leukemia, 3.56 µM; with NCI-H23 lung, 5.44 µM. In addition, the GI50 with OVCAR-3 ovarian is 2450 nM; in the assay with RPMI-8226 leukemia, 3.02 µM; in the assay with SF-268 CNS it was 3250 nM; with SNB-75 CNS, 2210 nM. The TGI with A549 NSCLC was 76.9 µM; in the assay on CAKI-1 renal, > 100 µM; in the assay with COLO 205 colon, 13.4 µM; in the assay on HT29 colon, 12.2 µM; in the assay with K-562 leukemia it was > 100 µM; in the assay with NCI-H23 lung, 26.5 µM. The TGI was found to be 7.45 µM in the assay with OVCAR-3 ovarian, 10.8 µM with RPMI-8226 leukemia, 22 µM with SF-268 CNS and 6.78 µM with SNB-75 CNS.

Regarding `c1cnc2nc3n(c2c1)CSC3`, the TGI with A549 NSCLC, with CAKI-1 renal, in the assay with COLO 205 colon, with HT29 colon, in the assay on K-562 leukemia and with NCI-H23 lung was > 100 µM each time. Besides, the TGI in the assay on OVCAR-3 ovarian, in the assay on RPMI-8226 leukemia, in the assay with SF-268 CNS and in the assay with SNB-75 CNS was > 100 µM each time.

On to `O=C1NC(Cc2ccccc2)C(=O)N2CCCC12` (stereo not drawn), for which the TGI with A549 NSCLC, with CAKI-1 renal, in the assay with COLO 205 colon, in the assay on HT29 colon, in the assay with K-562 leukemia and in the assay on OVCAR-3 ovarian was > 100 µM throughout. Further, the TGI in the assay with RPMI-8226 leukemia, in the assay with SF-268 CNS and with SNB-75 CNS was > 100 µM throughout.

As for `COC1/C=C/OC2(C)Oc3c(C)c(O)c4c(O)c(c(C=NOC(c5ccccc5)c5ccccc5)c(O)c4c3C2=O)NC(=O)/C(C)=C/C=C/C(C)C(O)C(C)C(O)C(C)C(OC(C)=O)C1C` (stereo not drawn), the GI50 with A549 NSCLC was 1.58 µM; in the assay with CAKI-1 renal, 1770 nM; with COLO 205 colon, 1010 nM; in the assay on HT29 colon, 1010 nM; with K-562 leukemia, 2.17 µM; in the assay with NCI-H23 lung, 1.48 µM. For the same compound, the GI50 in the assay on OVCAR-3 ovarian is 1000 nM; in the assay with RPMI-8226 leukemia, 1.16 µM; in the assay on SF-268 CNS it was 2250 nM; in the assay on SNB-75 CNS, 1340 nM. In addition, the TGI in the assay with A549 NSCLC stood at 6.05 µM; with CAKI-1 renal, 7.15 µM; in the assay on COLO 205 colon, 2.06 µM; with HT29 colon, 2.13 µM; in the assay with K-562 leukemia, 50 µM; in the assay on NCI-H23 lung, 5.43 µM. Also, the TGI came out at 2.01 µM in the assay on OVCAR-3 ovarian, 3.19 µM with RPMI-8226 leukemia, 8.23 µM in the assay with SF-268 CNS and 5.73 µM in the assay on SNB-75 CNS.

As to `C=CCn1c(=O)c(C(=O)NC(=O)OCC)cn(C2CCCCC2)c1=O`, the TGI in the assay on A549 NSCLC, in the assay on CAKI-1 renal, with COLO 205 colon, in the assay on HT29 colon, with K-562 leukemia and in the assay with NCI-H23 lung was > 100 µM throughout. Further, the TGI in the assay with OVCAR-3 ovarian, with RPMI-8226 leukemia and in the assay on SNB-75 CNS was > 100 µM throughout.

Regarding `Cn1c(=O)c(-c2c(Cl)cccc2Cl)cc2cnc(Nc3ccc(I)cc3)nc21`, the GI50 was 3.72 µM in the assay with A549 NSCLC; < 24.7 nM in the assay with CAKI-1 renal; 45.8 nM in the assay with COLO 205 colon; 122 nM in the assay on HT29 colon; < 0.01 µM with K-562 leukemia; 0.065 µM with NCI-H23 lung. Moreover, the GI50 in the assay with OVCAR-3 ovarian is 15.8 nM; with RPMI-8226 leukemia, < 0.0118 µM; with SNB-75 CNS, 17 nM. In addition, the TGI was 19.4 µM in the assay on A549 NSCLC; 0.324 µM with COLO 205 colon; 1.56 µM in the assay on HT29 colon; < 0.01 µM in the assay with K-562 leukemia; 0.469 µM in the assay on NCI-H23 lung; 0.064 µM in the assay on OVCAR-3 ovarian. Also, the TGI in the assay with RPMI-8226 leukemia is 0.0785 µM; with SNB-75 CNS, 0.155 µM.

For the compound `Cc1ccnc(NC(c2ccccc2)c2ccc3cccnc3c2O)c1` (stereo not drawn), the GI50 in the assay on A549 NSCLC was 3.99 µM; in the assay with CAKI-1 renal it was 1680 nM; in the assay with COLO 205 colon it was 14300 nM; in the assay with K-562 leukemia, 3.27 µM; in the assay on NCI-H23 lung, 5.12 µM; with OVCAR-3 ovarian, 2790 nM. Also, the GI50 in the assay with RPMI-8226 leukemia is 8.19 µM; with SF-268 CNS, 2930 nM; in the assay with SNB-75 CNS it was 21100 nM. Moreover, the TGI is 45.1 µM with A549 NSCLC; 7.17 µM with CAKI-1 renal; 73.4 µM with COLO 205 colon; > 100 µM with K-562 leukemia; > 100 µM in the assay on NCI-H23 lung; 14 µM with OVCAR-3 ovarian. Moreover, the results for the TGI with RPMI-8226 leukemia, in the assay on SF-268 CNS and in the assay with SNB-75 CNS were > 100 µM, 21.5 µM and > 100 µM, respectively.
